Source: the NIST ThermoML archive (doi:10.1016/j.jct.2018.04.003)
Numbers after ± are expanded uncertainties.

Experiment: mn = molality of the nth substance listed, in mol/kg
Conditions: 101.3 kPa, Liquid; for speed of sound: Frequency=2 MHz, Linear variable-path acoustic interferometer; for mass density: Pycnometric method

NNC(=O)c1ccncc1 [isonicotinic acid hydrazide] + O
Conditions	mass density [kg/m3]	speed of sound [m/s]
288.15 K, m1 = 0.0099	999.49 ± 0.55	1466.6 ± 1.8
288.15 K, m1 = 0.02	999.88 ± 0.55	1467.3 ± 1.8
288.15 K, m1 = 0.03	1000.26 ± 0.55	1468 ± 1.8
288.15 K, m1 = 0.0401	1000.64 ± 0.55	1468.7 ± 1.8
288.15 K, m1 = 0.0495	1001 ± 0.55	1469.4 ± 1.8
288.15 K, m1 = 0.055	1001.19 ± 0.55	1469.8 ± 1.8
288.15 K, m1 = 0.06	1001.38 ± 0.55	1470.1 ± 1.8
288.15 K, m1 = 0.065	1001.55 ± 0.55	1470.5 ± 1.8
288.15 K, m1 = 0.0708	1001.77 ± 0.55	1470.9 ± 1.8
288.15 K, m1 = 0.075	1001.92 ± 0.55	1471.2 ± 1.8
288.15 K, m1 = 0.0809	1002.12 ± 0.55	1471.6 ± 1.8
288.15 K, m1 = 0.0846	1002.25 ± 0.55	1471.9 ± 1.8
288.15 K, m1 = 0.0901	1002.45 ± 0.55	1472.3 ± 1.8
288.15 K, m1 = 0.0949	1002.62 ± 0.55	1472.6 ± 1.8
288.15 K, m1 = 0.1002	1002.81 ± 0.55	1473 ± 1.8
298.15 K, m1 = 0.0099	997.39 ± 0.55	1497.4 ± 1.8
298.15 K, m1 = 0.0197	997.69 ± 0.55	1498.1 ± 1.8
298.15 K, m1 = 0.0299	998.02 ± 0.55	1498.8 ± 1.8
298.15 K, m1 = 0.04	998.35 ± 0.55	1499.6 ± 1.8
298.15 K, m1 = 0.0499	998.67 ± 0.55	1500.3 ± 1.8
298.15 K, m1 = 0.055	998.83 ± 0.55	1500.6 ± 1.8
298.15 K, m1 = 0.0599	998.99 ± 0.55	1500.9 ± 1.8
298.15 K, m1 = 0.0649	999.15 ± 0.55	1501.3 ± 1.8
298.15 K, m1 = 0.0699	999.31 ± 0.55	1501.6 ± 1.8
298.15 K, m1 = 0.075	999.47 ± 0.55	1502 ± 1.8
298.15 K, m1 = 0.0797	999.61 ± 0.55	1502.3 ± 1.8
298.15 K, m1 = 0.085	999.78 ± 0.55	1502.7 ± 1.8
298.15 K, m1 = 0.0897	999.92 ± 0.55	1503 ± 1.8
298.15 K, m1 = 0.0949	1000.09 ± 0.55	1503.4 ± 1.8
298.15 K, m1 = 0.1006	1000.26 ± 0.55	1503.8 ± 1.9
308.15 K, m1 = 0.0099	994.3 ± 0.56	1520.5 ± 1.8
308.15 K, m1 = 0.0199	994.58 ± 0.56	1521.3 ± 1.8
308.15 K, m1 = 0.0301	994.85 ± 0.56	1522 ± 1.8
308.15 K, m1 = 0.04	995.12 ± 0.56	1522.7 ± 1.8
308.15 K, m1 = 0.0501	995.39 ± 0.56	1523.5 ± 1.8
308.15 K, m1 = 0.055	995.52 ± 0.56	1523.9 ± 1.8
308.15 K, m1 = 0.06	995.64 ± 0.56	1524.2 ± 1.8
308.15 K, m1 = 0.0649	995.76 ± 0.56	1524.6 ± 1.8
308.15 K, m1 = 0.0699	995.9 ± 0.56	1525 ± 1.8
308.15 K, m1 = 0.0751	996.03 ± 0.56	1525.3 ± 1.8
308.15 K, m1 = 0.0799	996.15 ± 0.56	1525.7 ± 1.8
308.15 K, m1 = 0.0851	996.28 ± 0.56	1526.1 ± 1.8
308.15 K, m1 = 0.09	996.41 ± 0.56	1526.4 ± 1.8
308.15 K, m1 = 0.095	996.53 ± 0.56	1526.8 ± 1.8
308.15 K, m1 = 0.1002	996.67 ± 0.56	1527.2 ± 1.8

[Cl-].[K+] [potassium chloride] + O
Conditions	mass density, 288.15 K [kg/m3]	mass density, 298.15 K [kg/m3]	mass density, 308.15 K [kg/m3]	speed of sound, 288.15 K [m/s]	speed of sound, 298.15 K [m/s]	speed of sound, 308.15 K [m/s]
m1 = 0.06	1002.26 ± 0.55	1000.42 ± 0.55	997.25 ± 0.56	1467.4 ± 1.8	1498.3 ± 1.8	1522.2 ± 1.8
m1 = 0.1	1003.48 ± 0.55	1001.79 ± 0.55	998.71 ± 0.56	1469.6 ± 1.8	1502.5 ± 1.8	1525.1 ± 1.8
